Experiment [1] has as its target T1, hSphK-1 (sphingosine kinase 1) (Homo sapiens, UniProt Q9NYA1).
T1 construct: gene SPHK1; full-length, 6×His-SphK-1 (1155 bp CDS)
The experiment is described as follows: fluorometric conversion of NBD-Sph ([…]) to NBD-S1P by purified rSphK-1. The experiment is classed as biochemical.

For a further experiment, the target named is T2, hHDAC-1 (Homo sapiens, UniProt Q13547).
T2 construct: gene HDAC1
Put plainly: microscale thermophoresis. Format: binding. A general note: In MST a laser heats a spot of the sample, and binding alters the fluorescence response.

Experiment [2] addresses T3, PfHDAC-1 (histone deacetylase-1) (Plasmodium falciparum, UniProt Q9XYC7). Put plainly: microscale thermophoresis; also lipid overlay, S1P-bead pull-down, and […] inhibition of the recombinant enzyme at […]. The experiment is classed as binding. Set-up: gene HDAC1; full-length, 6×His-PfHDAC-1 (1380 bp CDS from Pf3D7).
Experiment [3] has as its target T3, PfHDAC-1 (histone deacetylase-1). Put plainly: biochemical. Set-up: gene HDAC1.

T3 sequence (Q9XYC7 1-449): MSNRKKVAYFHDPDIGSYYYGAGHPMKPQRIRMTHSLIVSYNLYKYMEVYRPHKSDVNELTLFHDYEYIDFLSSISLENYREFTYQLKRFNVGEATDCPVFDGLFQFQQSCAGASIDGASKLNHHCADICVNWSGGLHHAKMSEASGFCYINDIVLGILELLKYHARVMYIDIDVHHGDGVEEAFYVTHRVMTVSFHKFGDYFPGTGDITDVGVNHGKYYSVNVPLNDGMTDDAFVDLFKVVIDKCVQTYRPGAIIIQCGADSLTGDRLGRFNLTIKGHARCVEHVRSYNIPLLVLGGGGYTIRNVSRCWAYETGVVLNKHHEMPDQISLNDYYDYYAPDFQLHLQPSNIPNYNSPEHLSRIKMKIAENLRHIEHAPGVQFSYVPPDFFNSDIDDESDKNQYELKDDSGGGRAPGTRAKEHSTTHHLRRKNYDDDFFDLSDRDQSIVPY
T2 sequence (Q13547 whole entry): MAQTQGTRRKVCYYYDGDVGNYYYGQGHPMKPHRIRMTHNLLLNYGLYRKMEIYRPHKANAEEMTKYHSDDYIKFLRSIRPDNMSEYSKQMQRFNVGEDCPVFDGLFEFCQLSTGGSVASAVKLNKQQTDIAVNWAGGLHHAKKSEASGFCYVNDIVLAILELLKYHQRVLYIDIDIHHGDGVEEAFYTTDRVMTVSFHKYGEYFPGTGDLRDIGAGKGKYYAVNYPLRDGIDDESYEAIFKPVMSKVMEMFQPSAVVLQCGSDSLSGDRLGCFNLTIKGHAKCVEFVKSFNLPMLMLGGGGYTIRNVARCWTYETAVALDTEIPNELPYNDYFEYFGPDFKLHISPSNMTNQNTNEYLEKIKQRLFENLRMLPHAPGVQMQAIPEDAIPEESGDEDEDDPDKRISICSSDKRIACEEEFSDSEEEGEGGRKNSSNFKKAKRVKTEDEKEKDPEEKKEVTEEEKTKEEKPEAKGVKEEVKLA
T1 sequence (Q9NYA1 whole entry): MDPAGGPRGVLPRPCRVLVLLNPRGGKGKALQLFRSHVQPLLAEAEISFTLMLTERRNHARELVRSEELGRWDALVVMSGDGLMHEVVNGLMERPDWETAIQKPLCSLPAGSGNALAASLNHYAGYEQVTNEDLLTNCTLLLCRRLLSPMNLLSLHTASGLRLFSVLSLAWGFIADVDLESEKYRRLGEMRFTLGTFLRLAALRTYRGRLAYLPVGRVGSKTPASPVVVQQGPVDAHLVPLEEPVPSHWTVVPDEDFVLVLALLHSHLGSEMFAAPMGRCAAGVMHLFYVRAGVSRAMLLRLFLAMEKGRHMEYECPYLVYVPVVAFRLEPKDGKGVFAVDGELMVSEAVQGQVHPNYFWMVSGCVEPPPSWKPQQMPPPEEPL

In the case of `N[C@@H](CO)[C@H](O)/C=C/CCCCCCCCCCCCCNc1ccc([N+](=O)[O-])c2nonc12` [NBD-Sph, NBD-Sphingosine], the “fluorometric conversion of NBD-Sph (10 μM) to NBD-S1P by purified rSphK-1” value in experiment [1] is “fluorimetry-based enzymatic assay using NBD-sphingosine”.

For `CCCCCCCCCCCCC/C=C/[C@@H](O)[C@@H](N)COP(=O)(O)O` [S1P, Sphingosine-1-Phosphate], the results for the Kd (on hHDAC-1; in experiment [2]) were 1610 ± 800 nM and 177 ± 24 nM, respectively.

Consider `O=C(CCCCCCC(=O)Nc1ccccc1)NO` [SAHA, Suberoylanilide Hydroxamic Acid], for which the Kd (in general, a measure of binding affinity in units of concentration) in experiment [3] is 2090 ± 450 nM.

The values are drawn from publication PMC10100792, “Host-Erythrocytic Sphingosine-1-Phosphate Regulates Plasmodium Histone Deacetylase Activity and Exhibits Epigenetic Control over Cell Death and Differentiation” (Microbiology Spectrum, 2023).
